Reference: patent US20210196766A1, “DESIGNED BACTERIAL COMPOSITIONS AND USES THEREOF” (Seres Therapeutics, Inc., priority 2019, published 2021)
Read-outs that look alike come from different tables or passages of the source.

Key:
[1] = system: primary human colon epithelial cell monolayer; assay: Primary epithelial cell monolayer barrier integrity assay (IFN-γ, FITC-dextran); conditions: for restoration of barrier integrity in the presence of IFN-γ: metabolites, starting at a concentration of about 5 mM
Protocol: The assays were performed using a primary epithelial cell monolayer barrier integrity assay. […] The addition of interferon-gamma (IFN-γ) disrupts the tight junctions of the epithelial monolayer and induces apoptosis of epithelial cells. The leakiness of the membrane can be assessed by adding FITC-dextran to the apical side of the apparatus and measuring how rapidly it can pass to the basolateral compartment. A leaky monolayer will allow FITC-dextran to the basal side of the apparatus more quickly than a monolayer with an intact monolayer.
Briefly, the barrier integrity assay was conducted as follows. […] Colon organoids were harvested and trypsinized into a suspension containing few cell clusters and seeded onto Matrigel coated transwell inserts (Corning) at a density of 100,000 cells per insert in 50% L-WRN medium supplemented with 10 μM Y-27632 (Millipore Sigma). […] These primarily stem cell population was differentiated into colonocytes by switching the culture medium to 5% L-WRN for 48 hours. After 24 hours of differentiation, specific SCFA or 5% bacterial culture supernatant treatments were added to apical interface in 100 μL of 5% L-WRN medium and 5-25 ng/ml INFγ (Peprotech), depending on the experiment, was added in 175 μL of 5% L-WRN medium to the basolateral interface and incubated for 48 hours at 37° C. After the 48 hour incubation, colonic epithelial monolayer permeability was assessed by adding 10 μL of 10 ng/ml FITC-Dextran (4 kDa, Sigma) to the apical interface, the organoids were incubated for 1 hour and then 100 μL of medium was collected from the basolateral compartment of each transwell and transferred to a 96 well plate for fluorescence detection.

[2] = system: HT29 cells; assay: Anti-inflammatory assay in IECs: TNF-α-driven IL-8 secretion by HT29 cells; type: cell-based, human; conditions: metabolites
[3] = system: HDAC enzymes (HeLa nuclear extract); assay: HDAC inhibition assay of bacterial supernatants (HDAC-Glo I/II, HeLa nuclear extract); type: biochemical
[4] = GC-MS of short-, medium- and branched-chain fatty acids in supernatants; conditions: single strain supernatants
Source text: FIG. 18 provides a table listing bacterial species and the short chain fatty acids (SCFAs), medium chain fatty acids (MCFAs), and branched chain fatty acids (BCFAs) produced by each of the species. […] The limit of detection for each of the fatty acids is provided in the row labeled “Limit of Detection (LOD).” The SCFAs measured included: acetic acid, propanoic acid, and butanoic acid. The MCFAs measured included: pentanoic acid, hexanoic acid, heptanoic acid. The BCFAs measured included: 2-methyl-propanopic acid, 3-methyl-butanoic acid, and 4-methyl-pentaoic acid.
As described supra, certain tryptophan (Trp) metabolites were associated with remission in patients treated with an HHSP. Accordingly, Applicant tested various bacterial species for the presence of SCFA or tryptophan metabolites in their supernatants. The presence of the tryptophan metabolites was determined using a colorimetric assay for detection of indolic compounds (Indole Reagent, Anaerob Systems). Indole produces a light blue color in this assay, while other Trp metabolites produce purple color. The presence of SCFAs were tested using the HDAC assay (described supra). Supernatants of selected strains that were identified as producers of Trp metabolites by the colorimetric indole assay, and/or producers of SCFAs by the HDAC assay were further analyzed by GC-MS to identify the specific metabolites produced.

O=C(O)CCc1c[nH]c2ccccc12 [3-indolepropionic acid]
restoration of barrier integrity in the presence of IFN-γ [1]: restored barrier integrity

CC(=O)O [acetate]
TNF-α-dependent IL-8 secretion [2]: reduced levels of TNF-α-dependent IL-8 secretion

CCCC(=O)O [butyrate]
decrease of permeability ([1]; 5 mM, positive control): 50%

CCC(=O)O [propionate]
TNF-α-dependent IL-8 secretion [2]: reduced levels of TNF-α-dependent IL-8 secretion
restoration of barrier integrity in the presence of IFN-γ [1]: restored barrier integrity

Clostridium clostridioforme
HDAC cluster assignment [3]: 6

Clostridium disporicum
HDAC cluster assignment [3]: 0

Clostridium glycolicum
hexanoate production [4]: Hexanoate producing

Clostridium mayombei
HDAC cluster assignment [3]: 2

Clostridium sp 7 2 43FAA
HDAC cluster assignment ([3]; pattern of HDAC inhibition across nutrient sources): 5
HDAC Inhibition in any C source (25/18% cutoff) ([3]; supernatants of strains grown in PY medium with one of seven C sources at 0.5%): 1 (If a strain exhibits HDACi activity of at least 0.25 in any nutrient, or 0.18 in fucose, it is considered to have HDACi activity and it is marked with “1”)

Clostridium tertium
HDAC cluster assignment [3]: 5

Parabacteroides distasonis
HDAC cluster assignment [3]: 3
